Values of other authors in patent US11260028B2, “Nanosome formulations of aprepitant and methods and applications thereof” (ForDoz Pharma Corp., priority 2017, dated 2022).

water solubility: poor
Structure (SMILES): C[C@@H](O[C@H]1OCCN(Cc2n[nH]c(=O)[nH]2)[C@H]1c1ccc(F)cc1)c1cc(C(F)(F)F)cc(C(F)(F)F)c1 [aprepitant, 5-[[(2R,3S)-2-[(1R)-1-[3,5-bis(trifluoromethyl)phenyl]ethoxy]-3-(4-fluorophenyl)-4-morpholinyl]methyl]-1,2-dihydro-3H-1,2,4-triazol-3-one]
